Tests used:
[1] = metabolic properties and overall effectiveness as a supplement, compared with other creatine forms; format: in vivo
burn victims = conditions: compared with molar equivalents of ornithine base and alpha-ketoglutaric acid taken separately; cited from earlier work
[2] = absorption / bioavailability after oral supplementation; format: in vivo
[3] = problems associated with creatine supplementation (cramping, bloating); format: in vivo; conditions: compared with other creatine supplementation
ATP production = experiment: production of ATP (high energy phosphate molecules); conditions: compared with additive effects of creatine and malic acid taken separately
[4] = compared with any other form of creatine or malic acid supplement currently available
[5] = compared to creatine monohydrate

Compound: CN(CC(=O)O)C(=N)N.O=C(O)CC(O)C(=O)O [monocreatine malate, reference compound]
- effect compared with dicreatine malate ([1]; comparison with dicreatine malate, inventors' experience): inferior to the dicreatine malate

Compound: NCCC[C@H](N)C(=O)O [ornithine alpha-ketoglutarate]
- anti-catabolic effect (burn victims): strong anti-catabolic effect on burn victims far greater in effect than what is produced by merely combining the effects of the molar equivalents

Compound: dicreatine malate
- absorption [2, 4]: more readily absorbed
- bioavailabilities of the creatine and malic acid moieties ([2]; compared with individual bioavailabilities of creatine monohydrate and malic acid): increase the bioavailablities of both the creatine and malic acid moieties
- problems associated with creatine supplementation (cramping, bloating, bioavailability issues) [3]: decreasing some of the problems associated with other creatine supplementation
- decreasing adipose stores [1, 5]: enhanced efficacy for decreasing adipose stores
- increasing cell volumization [1, 5]: enhanced efficacy for increasing cell volumization
- increasing muscle mass [1, 5]: enhanced efficacy for increasing muscle mass
- increasing overall strength and endurance [1, 5]: enhanced efficacy for increasing for increasing overall strength and endurance
- effectiveness [1, 4]: much more effective
- production of ATP (ATP production): increases the production of ATP to a much greater extent than what would be expected by the mere additive effects

Reference: patent US7129273B2, “Dicreatine Malate” (Creative Compounds, LLC, priority 2003, dated 2006)
